Read-outs that look alike come from different tables or passages of the source.
Columns and labels:
[1] = molecular target: T1, human creatine transporter (hCRT, SLC6A8) (Homo sapiens, UniProt P48029); test: cryo-EM structure; format: binding
T1 sequence (P48029 1-635): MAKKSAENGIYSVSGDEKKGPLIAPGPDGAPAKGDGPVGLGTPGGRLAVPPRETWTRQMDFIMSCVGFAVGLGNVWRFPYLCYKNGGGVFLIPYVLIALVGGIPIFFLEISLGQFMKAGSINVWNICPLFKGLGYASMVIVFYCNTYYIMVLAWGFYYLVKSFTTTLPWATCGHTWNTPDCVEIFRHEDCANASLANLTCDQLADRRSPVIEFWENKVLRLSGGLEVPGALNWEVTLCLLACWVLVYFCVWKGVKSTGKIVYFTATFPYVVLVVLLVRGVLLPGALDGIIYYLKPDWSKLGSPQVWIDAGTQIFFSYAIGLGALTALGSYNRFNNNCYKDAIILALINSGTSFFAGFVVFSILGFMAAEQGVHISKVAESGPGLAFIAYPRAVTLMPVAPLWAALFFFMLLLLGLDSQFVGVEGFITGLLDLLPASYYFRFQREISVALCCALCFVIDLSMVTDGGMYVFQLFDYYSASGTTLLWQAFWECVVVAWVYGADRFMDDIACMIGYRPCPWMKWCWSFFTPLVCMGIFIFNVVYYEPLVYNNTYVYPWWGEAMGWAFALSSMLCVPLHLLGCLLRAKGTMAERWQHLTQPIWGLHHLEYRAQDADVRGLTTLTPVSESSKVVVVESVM

[2] = molecular target: T1, human creatine transporter (hCRT, SLC6A8); test: cryo-EM structure; format: binding; remark: listed apart in the source

| Kd [1] [µM] | Kd [2] [µM] | Compound |
| --- | --- | --- |
| 3.39 | – | N=C(N)NCCC(=O)O [RGX202] |
| – | 3.2 | CN(CC(=O)O)C(=N)N [creatine] |
